Source: patent US20240016777A1, “COMPOUNDS AND METHODS FOR TREATING VIRAL INFECTIONS” (priority 2020, published 2024)

molecular target: SARS-CoV-2 M^pro (Severe acute respiratory syndrome coronavirus 2 (2019-nCoV) (SARS-CoV-2), UniProt P0DTD1); assay: biochemical; details: IC50; compounds evaluated at 0.015-300 μM

| Compound | IC50 [µM] |
| --- | --- |
| COc1c(O)cc2oc(-c3ccc(O)c(O)c3)cc(=O)c2c1O [6-methoxyluteolin] | 4 |

same assay, conditions: compound at 17 μM, duplicates, 20 min pre-incubation

| Compound | Activity (% enzyme activity by fluorescence relative to initial enzyme activity) |
| --- | --- |
| C[C@@H]1O[C@@H](OC[C@H]2O[C@@H](Oc3c(-c4ccc(O)cc4)oc4cc(O)cc(O)c4c3=O)[C@H](O)[C@@H](O)[C@H]2O)[C@H](O)[C@H](O)[C@H]1O [Biorobin] | +++ (<10% enzyme activity as indicated by fluorescence measurements) |

same assay, conditions: compound at 17 μM, duplicates, 20 min pre-incubation; read-out: Activity (% enzyme activity by fluorescence relative to initial enzyme activity)

| Compound | remaining activity at 17 µM [%] |
| --- | --- |
| C=C(C)C(CC=C(C)C)Cc1c(O)cc(O)c2c(=O)c(O)c(-c3ccc(O)cc3)oc12 (stereo not drawn) [8-Lavandulylkaempferol] | 10 to 80 |

same assay, conditions: compounds evaluated at 0.015-300 μM; read-out: IC50

| Compound | IC50 [µM] |
| --- | --- |
| C[C@@H]1O[C@@H](OC[C@H]2O[C@@H](Oc3c(-c4ccc(O)cc4)oc4cc(O)cc(O)c4c3=O)[C@H](O)[C@@H](O)[C@H]2O)[C@H](O)[C@H](O)[C@H]1O [Biorobin] | 7 |

same assay, conditions: read-out: Activity (% enzyme activity by fluorescence relative to initial enzyme activity), compound at 17 μM, duplicates, 20 min pre-incubation

| Compound | remaining activity at 17 µM [%] |
| --- | --- |
| CC(C)=CCc1c(O)c(CC=C(C)C)c2c(c1O)C(=O)C[C@@H](c1ccc(O)cc1)O2 [6,8-Diprenylnaringenin] | > 80 |
| CC(C)=CCc1c(O)c(CC=C(C)C)c2occ(-c3ccc(O)c(O)c3)c(=O)c2c1O [6,8-Diprenylorobol] | > 80 |
| CC(C)=CCC/C(C)=C/Cc1c(O)cc2c(c1O)C(=O)C[C@@H](c1ccc(O)cc1)O2 [6-Geranylnaringenin] | > 80 |
| CC(C)=CCc1c(O)c(C)c(O)c2c1O[C@H](c1ccc(O)cc1)CC2=O [6-Methyl-8-prenylnaringenin] | < 10 |
| CC(C)=CCc1c(O)cc2c(c1O)C(=O)C[C@@H](c1ccc(O)cc1)O2 [6-Prenylnaringenin] | > 80 |
| COc1c(-c2ccc(O)c(O)c2)oc2cc(O)c(CC=C(C)C)c(O)c2c1=O [6-Prenylquercetin-3-methylether] | > 80 |
| COc1c(O)cc2oc(-c3ccc(O)c(O)c3)cc(=O)c2c1O [6-methoxyluteolin] | 10 to 80 |
| CC(C)=CCc1cc(-c2cc(=O)c3c(O)cc(O)c(CC=C(C)C)c3o2)ccc1O [8,3′-Diprenylapigenin] | < 10 |
| CC(C)=CCc1c(O)ccc2c(=O)c(-c3ccc(O)cc3)coc12 [8-Prenyldaidzein] | > 80 |
| CC(C)=CCc1c(O)cc(O)c2c(=O)c(O)c(-c3ccc(O)cc3)oc12 [8-Prenylkaempferol] | > 80 |
| CC(C)=CCc1c(O)c(CC=C(C)C)c2occ(-c3ccc(O)cc3O)c(=O)c2c1O [8-Prenylluteone] | > 80 |
| CC(C)=CCc1c(O)cc(O)c2c1O[C@H](c1ccc(O)cc1)CC2=O [8-Prenylnaringenin] | 10 to 80 |
| CC(C)=CCc1cc([C@@H]2CC(=O)c3ccc(O)c(CC=C(C)C)c3O2)cc(CC=C(C)C)c1O [(−)-Sophoranone] | 10 to 80 |
| CC(C)=CCc1c(-c2ccc(O)cc2O)oc2cc(O)cc(O)c2c1=O [Albanin A] | > 80 |
| CC(C)=CCc1c(O)cc2oc(-c3ccc(O)cc3O)cc(=O)c2c1O [Artocarpesin] | > 80 |
| COc1cc2oc(-c3ccc(O)cc3O)c(CC=C(C)C)c(=O)c2c(O)c1/C=C/C(C)C [Artocarpin] | > 80 |
| CC(C)=CCc1c(O)c(CC=C(C)C)c2oc3c(c(=O)c2c1O)C(C=C(C)C)Oc1cc(O)c(O)cc1-3 (stereo not drawn) [Artoheterophyllin B] | > 80 |
| CC(C)=CCc1c2c(c(O)c3c(=O)c(-c4ccc(O)c(O)c4)coc13)C=CC(C)(C)O2 [Auriculasin] | > 80 |
| CC(C)=CCc1c(O)cc(O)c2c(=O)c(O[C@@H]3O[C@@H](C)[C@H](O)[C@@H](O)[C@H]3O)c(-c3ccc(O)cc3)oc12 [Baohuoside II] | > 80 |
| COc1ccc(-c2oc3c(CC=C(C)C)c(O)cc(O)c3c(=O)c2O[C@@H]2O[C@@H](C)[C@H](O)[C@@H](O)[C@H]2O)cc1 [Baohuoside I] | 10 to 80 |
| COc1ccc(-c2oc3c(CC=C(C)C)c(O)cc(O)c3c(=O)c2O[C@@H]2O[C@@H](C)[C@H](O[C@@H]3O[C@H](CO)[C@@H](O)[C@H](O)[C@H]3O)[C@@H](O)[C@H]2O)cc1 [Baohuoside VII] | 10 to 80 |
| CC(C)=CCc1c(O[C@@H]2O[C@H](CO)[C@@H](O)[C@H](O)[C@H]2O)cc(O)c2c(=O)c(O[C@@H]3O[C@@H](C)[C@H](O)[C@@H](O)[C@H]3O[C@@H]3O[C@@H](C)[C@H](O)[C@@H](O)[C@H]3O)c(-c3ccc(O)cc3)oc12 [Baohuoside V] | 10 to 80 |

| Compound | remaining activity at 17 µM [%] |
| --- | --- |
| CC(C)=CCc1cc2c(cc1O)O[C@H](c1ccc(O)cc1)CC2=O [Bavachin] | > 80 |
| COc1cc2c(cc1CC=C(C)C)C(=O)C[C@@H](c1ccc(O)cc1)O2 [Bavachinin] | > 80 |
| COc1c(C2=Cc3ccc(O)cc3OC2)ccc(O)c1CC=C(C)C [Bidwillol A] | > 80 |
| CC(C)=CCc1cc(-c2oc3c(CC=C(C)C)c(O)cc(O)c3c(=O)c2O)ccc1O [Broussoflavonol F] | > 80 |
| COc1ccc(-c2oc3c(CC=C(C)C)c(O[C@@H]4O[C@H](CO)[C@@H](O)[C@H](O)[C@H]4O)cc(O)c3c(=O)c2O[C@@H]2O[C@@H](C)[C@H](OC(C)=O)[C@@H](O)[C@H]2O[C@@H]2O[C@H](CO)[C@@H](O)[C@H](OC(C)=O)[C@H]2O)cc1 [Caohuoside E] | > 80 |
| CC(C)=CCc1cc([C@H]2Oc3cc(O)cc(O)c3C(=O)[C@@H]2O)cc(CC=C(C)C)c1O [Cathayanon H] | > 80 |
| CC(C)=CCC/C(C)=C/Cc1cc(-c2coc3cc(O)ccc3c2=O)ccc1O [Corylifol A] | > 80 |
| CC(C)=CCc1c(O)ccc2c(=O)cc(-c3ccc(O)c(O)c3)oc12 [Corylifol C] | > 80 |
| CC(C)=CCc1c(O)cc2c(c1O)C(=O)C[C@@H](c1ccc(O)cc1O)O2 [Cudraflavanone B] | > 80 |
| CC(C)=CCc1c(-c2ccc(O)cc2O)oc2cc3c(c(O)c2c1=O)C=CC(C)(C)O3 [Cudraflavone B] | 10 to 80 |
| CC(C)=CC1Oc2cc(O)ccc2-c2oc3cc(O)cc(O)c3c(=O)c21 (stereo not drawn) [Cyclocommunol] | > 80 |
| CC(C)=CCc1c2c(c(O)c3c(=O)c4c(oc13)-c1cc(O)c(O)cc1OC4C=C(C)C)C=CC(C)(C)O2 (stereo not drawn) [Cycloheterophyllin] | > 80 |
| CC(C)=CC1Oc2cc(O)ccc2-c2oc3c4c(cc(O)c3c(=O)c21)OC(C)(C)C=C4 (stereo not drawn) [Cyclomorusin] | > 80 |
| CC(C)=CCc1c(O)cc(O)c2c(=O)c3c(oc12)-c1ccc(O)cc1OC3C=C(C)C (stereo not drawn) [Cyclomulberrin] | 10 to 80 |
| COc1c2c(cc(O)c1CC=C(C)C)OCC(c1ccc(O)cc1O)=C2 [Dehydroglyasperin C] | > 80 |
| C=C(C)C(O)Cc1cc(-c2coc3cc(O)c(CC=C(C)C)c(O)c3c2=O)ccc1O (stereo not drawn) [Derrisisoflavone B] | > 80 |
| CC(C)=CCc1c(O)ccc([C@H]2COc3cc(O)cc(O)c3C2=O)c1O [Dihydrolicoisoflavone] | > 80 |
| O=C1c2c(O)cc(O)cc2O[C@H](c2ccc(O)cc2O)[C@H]1O [Dihydromorin] | > 80 |
| C=C(C)C(O)Cc1cc(-c2oc3cc(O)c(OC)c(O)c3c(=O)c2OC)cc(CCC(C)CO)c1O (stereo not drawn) [Dodoviscin A] | > 80 |
| COc1c(-c2cc(CC=C(C)C)c(O)c(CCC(C)CO)c2)oc2cc(O)cc(O)c2c1=O (stereo not drawn) [Dodoviscin H] | > 80 |
| COc1cc(-c2oc3cc(O)cc(O)c3c(=O)c2OC)cc(CC=C(C)C)c1O [Dodoviscin J] | > 80 |
| COc1c(O)cc2oc(-c3cc(CC=C(C)C)c4c(c3)CC(O)C(C)(C)O4)c(OC)c(=O)c2c1O (stereo not drawn) [Dodovisone A] | > 80 |
